# Results as given in patent US6846921B2, “Chimeric antisense oligonucleotides and cell transfecting formulations thereof” (Chiron Corporation, priority 1999, dated 2005).
# {5'-OMe-dT} = O-methyl thymidine blocking nucleotide (W), phosphodiester-linked; {3'-3'N} = to-3' linked nucleotide blocking group (Z), phosphodiester-linked; d = 2'-deoxy (DNA); m = 2'-O-methyl
# Experiments:
# [1] = test system: human fibrosarcoma (HT1080) cells; assay: Delivery of FITC-labeled chimeric oligonucleotides, fluorescence analysis; format: cell-based
# Source text: One method of delivery involves the use of transfection agents known as “lipitoids” and “cholesteroids”, described, for example, in co-owned PCT publications WO 98/06437 and WO 99/08711 (Zuckermann et al.), based on U.S. Ser. Nos. 60/023,867, 60/054,743, and 09/132,808, which are hereby incorporated by reference. These lipid-cationic peptoid conjugates are shown in these references to be effective reagents for the delivery of plasmid DNA to cells in vitro. It is shown herein that such compounds efficiently deliver oligonucleotides into a variety of primary and tumor cell lines. The efficiency of delivery was assessed by fluorescence analysis of FITC-labeled oligonucleotides, or by monitoring mRNA levels after transfection of chimeric antisense oligonucleotides, as described further below.
# The extent of delivery of FITC-labeled chimeric oligonucleotides into human fibrosarcoma (HT1080) cells was assessed via fluorescence analysis. (All oligonucleotides used in the subsequent studies were chimeric oligonucleotides as described for the studies represented in Table 1.) The sequence of the oligonucleotides was the reverse control of PDK1 (SEQ ID NO: 25, the reverse of SEQ ID NO: 23) so that the effect of the oligonucleotides on the cells would be minimal. The oligonucleotides were transfected via complexation with (a) a commercially available transfection agent, Effectene™, (b) the peptoid (NaeNmpeNmpe)3 (peptoid 1), (c) Lipitoid 1, in a 1:4 charge ratio of oligo to lipitoid, and (d) Lipitoid 1, in a 1:3 charge ratio.
# AKT1 mRNA [2] = assay: AKT1 mRNA knockout after transfection of chimeric antisense oligonucleotide; format: cell-based, human; settings: HT1080 cells
# Protocol: (§1) With the exception of the mTyr oligo (SEQ ID NO: 17-18), which was transfected into B16 melanoma cells, all oligos shown in Table 1 were transfected into HT1080 cells, using “Lipitoid 1” (see below) for transfection, and incubated for 24 hours. The table gives the approximate level of mRNA knockout observed in each case.
# The same oligos were also delivered by commercial lipids (Effectene™) and peptoids ((NaeNmpeNmpe)3).
# (§2) For each transfection mixture, a carrier molecule, preferably a lipitoid or cholesteroid, was prepared to a working concentration of 0.5 mM in water, sonicated to yield a uniform solution, and filtered through a 0.45 μm PVDF membrane. […]
# (§3) The level of target mRNA was quantitated using the Roche LightCycler™ real-time PCR machine. […]
# (§4) An amplification mixture was prepared by mixing in the following order: 1×PCR buffer II, 3 mM MgCl2, 140 μM each dNTP, 0.175 pmol each oligo, 1:50,000 dil of SYBR® Green, 0.25 mg/ml BSA, 1 unit Taq polymerase, and H2O to 20 μl. (PCR buffer II is available in 10×concentration from Perkin-Elmer (Norwalk, Conn.). In 1×concentration it contains 10 mM Tris pH 8.3 and 50 mM KCl. SYBR® Green (Molecular Probes, Eugene, Oreg.) is a dye which fluoresces when bound to double stranded DNA. As double stranded PCR product is produced during amplification, the fluorescence from SYBR® Green increases.) […]
# CK1E mRNA = CK1E mRNA knockout after transfection of chimeric antisense oligonucleotide; format: cell-based, human; settings: HT1080 cells, Lipitoid 1 for transfection, incubated 24 hours, approximate level
# Protocol: as §1
# as §2, with “membrane. The antisense oligonucleotide was prepared to a working concentration of 100 μM in sterile Millipore water.” for “membrane.”
# as §3, §4
# IGFR1 mRNA = IGFR1 mRNA knockout after transfection of chimeric antisense oligonucleotide; format: cell-based, human; settings: HT1080 cells, Lipitoid 1 for transfection, incubated 24 hours, approximate level
# Protocol: as §1
# as §2, with “membrane. The antisense oligonucleotide was prepared to a working concentration of 100 μM in sterile Millipore water.” for “membrane.”
# as §3, §4
# CHK1 mRNA = CHK1 mRNA knockout after transfection of chimeric antisense oligonucleotide; format: cell-based, human
# Protocol: Antisense chimeric oligonucleotides based on the formula above, having sequences directed against AKT1 (SEQ ID NO: 1) or AKT2 (SEQ ID NO: 2), were prepared as described in Example 1. The oligonucleotides also included a 5′-terminal 5′-O-methyl thymidine, as indicated by the formula above. In these oligonucleotides, X^1 and X^2 were seven-base blocks of 2′-O-methyl PO RNA, Y is PS DNA, Z was a 3′-to-3′ linked nucleotide, and W was a 5′-O-methyl thymidine. Both Z and W were linked to the respective X blocks via phosphodiester linkages. […] FIGS. 5 and 6 show levels of endogenous AKT1 mRNA in colon cancer cells and HT1080 cells, respectively, transfected with anti-AKT1 chimeric oligonucleotides (SEQ ID NO: 1). […]
# as §3, §4
# Lovo colon cancer cells = assay: 4 day cell proliferation assay after transfection, Lovo; format: cell-based; settings: 4 day assay, 50-300 nM reverse control PDK1 oligo, compared with Lipitoids 1 and 2
# Protocol: (§5) (Again, reverse control PDK1 chimeric oligonucleotides, expected to be non-active, were used.). […] This effect is not limited to this cell type, and was also observed in proliferation assays of Km12L4 colon cancer cells (FIG. 6) and Colo320DM colon cancer cells (FIG. 7).
# (§6) Cells were seeded into 96 well plates at a density of 5000 cells per well. For a 4 day proliferation assay, 5 independent 96 well plates were prepared, one for each day. After overnight incubation, cells were transfected using the procedure described above. On each day of the proliferation assay, all medium was removed from one plate and frozen at −70° C. On day four, all plates were developed with the Quantos™ assay kit (Stratagene, La Jolla, Calif.) which determines the amount of DNA, and thus the number of cells, in each well.
# [3] = test system: Colo320DM colon cancer cells; assay: Cell proliferation assay after transfection, Colo320DM; format: cell-based; settings: compared with Lipitoids 1 and 2
# Protocol: as §5, §6
# E1AF mRNA = E1AF mRNA knockout after transfection of chimeric antisense oligonucleotide; format: cell-based, human; settings: HT1080 cells, Lipitoid 1 for transfection, incubated 24 hours, approximate level
# Protocol: as §1
# as §2, with “membrane. The antisense oligonucleotide was prepared to a working concentration of 100 μM in sterile Millipore water.” for “membrane.”
# as §3, §4
# chk1 kinase = chk1 kinase activity after antisense transfection; format: cell-based, human; settings: hCHK1 antisense, transfected cells
# [4] = test system: G2 cell cycle checkpoint control; assay: chk1 function (G2 cell cycle checkpoint control) after antisense transfection; format: cell-based, human; settings: hCHK1 antisense, transfected cells
# AKT1 mRNA [5] = assay: AKT1 mRNA knockout in colon cancer cell line (Lovo) with different carriers; format: cell-based; settings: Lovo cells; delivery of chimeric anti-AKT1 oligo
# Protocol: (§7) For each transfection mixture, a carrier molecule, preferably a lipitoid or cholesteroid, was prepared to a working concentration of 0.5 mM in water, sonicated to yield a uniform solution, and filtered through a 0.45 μm PVDF membrane. The antisense oligonucleotide was prepared to a working concentration of 100 μM in sterile Millipore water.
# The oligonucleotide was diluted in OptiMEM™ (Gibco/BRL), in a microfuge tube, to 2 μM, or approximately 20 μg oligo/ml of OptiMEM™. In a separate microfuge tube, lipitoid or cholesteroid, typically in the amount of about 1.5-2 nmol lipitoid/μg antisense oligonucleotide, was diluted into the same volume of OptiMEMTm used to dilute the oligonucleotide. The diluted antisense oligonucleotide was immediately added to the diluted lipitoid and mixed by pipetting up and down.
# Cells were plated on tissue culture dishes one day in advance of transfection, in growth media with serum, to yield a density at transfection of 60-90%. The oligonucleotide/lipitoid mixture was added to the cells, immediately after mixing, to a final concentration of 100-300 nM antisense oligonucleotide. Cells were incubated with the transfection mixture at 37° C., 5% CO2 for 4-24 hours. After incubation, the transfection mixture was removed and replaced with normal growth media with serum.
# as §3
# KRAS mRNA = KRAS mRNA knockout after transfection of chimeric antisense oligonucleotide; format: cell-based, human; settings: HT1080 cells, Lipitoid 1 for transfection, incubated 24 hours, approximate level
# Protocol: as §1
# as §7, with “water. […]” for “water.”
# as §3, §4
# ILK mRNA = ILK mRNA knockout after transfection of chimeric antisense oligonucleotide; format: cell-based, human; settings: HT1080 cells, Lipitoid 1 for transfection, incubated 24 hours, approximate level
# Protocol: as §1
# as §7, with “water. […]” for “water.”
# as §3, §4
# [6] = oligo SEQ ID NO: 25, in comparison to Effectene
substance,measurement,setting,value
DMPE(NaeNmpeNmpe)3 [Lipitoid 1],delivery effectiveness by charge ratio,[1]; 1:4 charge ratio of oligo to lipitoid versus 1:3,more effective than the 1:3 ratio
same,nuclear delivery of the oligonucleotide,[1]; [6],higher degree of nuclear delivery
same,transfection efficiency of FITC-labeled oligonucleotide,[1]; [6],significantly higher transfection efficiency
"CCATAGTGAGGTTGCATCTGGTGCC (chimeric modifications, further chemistry not given here) [SEQ ID NO: 1, chimeric antisense oligonucleotide directed against AKT1]",reduction in endogenous AKT1 mRNA level (FIG. 3),"AKT1 mRNA [2]; L1-transfected, versus control oligos and delivery by Effectene or peptoid (NaeNmpeNmpe)3",most pronounced reduction
"6 (AGCGGCAGAAGTTGAGGTATGTTGA; antisense; sugars from the 5' end m7 d11 m7, 5' {5'-OMe-dT}, 3' {3'-3'N}, backbone and T or U not given here; 2'-OMe blocks are phosphodiester, DNA gap is phosphorothioate) [compound 6]",mRNA knockout,CK1E mRNA,>80%
"9 (TCTTCCTCACAGACCTTCGGGCAAG; antisense; sugars from the 5' end m7 d11 m7, 5' {5'-OMe-dT}, 3' {3'-3'N}, backbone and T or U not given here; 2'-OMe blocks are phosphodiester, DNA gap is phosphorothioate) [compound 9]",mRNA knockout,IGFR1 mRNA,> 80%
"3 (CCCAGAGCCGATGGTCCGATCATGT; antisense; sugars from the 5' end m7 d11 m7, 5' {5'-OMe-dT}, 3' {3'-3'N}, backbone and T or U not given here; 2'-OMe blocks are phosphodiester, DNA gap is phosphorothioate) [compound 3]",mRNA knockout,"CHK1 mRNA; CHK1, HT1080 cells, Lipitoid 1 for transfection, incubated 24 hours, approximate level",>90%
"1 (CCATAGTGAGGTTGCATCTGGTGCC; antisense; sugars from the 5' end m7 d11 m7, 5' {5'-OMe-dT}, 3' {3'-3'N}, backbone and T or U not given here; 2'-OMe blocks are phosphodiester, DNA gap is phosphorothioate) [compound 1]",mRNA knockout,"AKT1 mRNA [2]; AKT1, Lipitoid 1 for transfection, incubated 24 hours, approximate level",>90%
Chol-β-ala-(NaeNiaNia)3 [Cholesteroid 3],proliferation and viability following oligonucleotide transfection (FIG. 5),Lovo colon cancer cells,significant increase in proliferation and viability
same,proliferation following oligonucleotide transfection (FIG. 7),[3],also observed
"7 (CCTGCCAGTATGAAGTTGGGAAGCG; antisense; sugars from the 5' end m7 d11 m7, 5' {5'-OMe-dT}, 3' {3'-3'N}, backbone and T or U not given here; 2'-OMe blocks are phosphodiester, DNA gap is phosphorothioate) [compound 7]",mRNA knockout,E1AF mRNA,>90%
"CCCAGAGCCGATGGTCCGATCATGT (sugars from the 5' end m7 d11 m7, 5' {5'-OMe-dT}, 3' {3'-3'N}, backbone and T or U not given here; 2'-OMe blocks are phosphodiester, DNA gap is phosphorothioate) [SEQ ID NO: 3, chimeric antisense oligonucleotide directed against hCHK1]",degradation of endogenous mRNA,"CHK1 mRNA; hCHK1 antisense, transfected cells",degradation of endogenous mRNA
same,chk1 kinase activity,chk1 kinase,loss of chk1 kinase activity
same,chk1 function (G2 cell cycle checkpoint control),[4],loss of chk1 function
Chol-β-ala-(NaeNmpeNmpe)3 [Cholesteroid 1],AKT1 mRNA knockout by carrier (FIG. 4),AKT1 mRNA [5],better AKT1 mRNA knockout than delivery by Lipitoid 1 or Lipitoid 2
"12 (GCATGTGGAAGGTAGGGAGGCAAGA; antisense; sugars from the 5' end m7 d11 m7, 5' {5'-OMe-dT}, 3' {3'-3'N}, backbone and T or U not given here; 2'-OMe blocks are phosphodiester, DNA gap is phosphorothioate) [compound 12]",mRNA knockout,KRAS mRNA,>85%
Chol-Ahx-(NaeNmpeNmpe)3 [Cholesteroid 2],proliferation and viability following oligonucleotide transfection (FIG. 5),Lovo colon cancer cells,significant increase in proliferation and viability
same,proliferation following oligonucleotide transfection (FIG. 7),[3],also observed
"11 (GTGTTTGTTCAGGGTTCCATTTCGG; antisense; sugars from the 5' end m7 d11 m7, 5' {5'-OMe-dT}, 3' {3'-3'N}, backbone and T or U not given here; 2'-OMe blocks are phosphodiester, DNA gap is phosphorothioate) [compound 11]",mRNA knockout,ILK mRNA,>90%
